Data set [1] in a line: Tumor cell line cytotoxicity of flavonoid dimers, LCC6MDR. The note with it: human, LCC6MDR cells, IC50 of compound alone. It is filed as cell-based, human. In outline:
(§1)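 LCC6, LCC6MDR and L929 cells seeded at 1×10^4 cells/well and exposed to graded doses of flavonoid dimers. Incubation 72 hrs at 37° C., 5% CO2. Read-out: % survivors.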

A short description of data set [2]: Tumor cell line cytotoxicity of flavonoid dimers, LCC6. The format is cell-based, human. The note with it: human, LCC6 cells, IC50 of compound alone. In outline:
as §1

A short description of data set [3]: Cytotoxicity of flavonoid dimers, L929 mouse fibroblast. The format is cell-based. The note with it: mouse, L929 fibroblast cells, IC50 of compound alone, 72 hrs, mouse fibroblast. In outline:
as §1

Data set [4] deals with LdAG83 promastigotes (wild type). Put plainly: In vitro anti-promastigote activity, LdAG83. It is filed as cell-based, Leishmania donovani. The note with it: Leishmania donovani, 72 h, read-out: Anti-promastigotes activity (IC50, μM) LdAG83. On the procedure: (§2) Cell Lines and Cell Culture. Promastigotes of Leishmania donovani (wild type LdAG83, pentamidine-resistant LdAG83-PentR50, and SSG-resistant Ld39) and Leishmania major [MHOM/IL/67/JERICHO II (Lm50122), from ATCC] were used in this study.
(§3) In Vitro Anti-Promastigote Activity. The viability of promastigotes was determined by the Cell Titer 96° Aqueous Assay (Promega) that employs a tetrazolium compound (MTS, 2-(4,5-Dimethylthiazol-2-yl-)-5-[3-(carboxymethoxy)phenyl]-2-(4-sulfophenyl)-2H-tetrazolium) and electron coupling reagent, phenazine methosulfate (PMS).^7 Promastigotes were seeded into 96-well flat bottom microtiter plate at 1×10^5 cells per well in a final volume of 100 μL medium and incubated with a series concentration of synthetic flavonoid dimers or known antileishmanials. The parasites were incubated at 27° C. for 72 hrs. Fresh solution of 2 mg/mL MTS and 0.92 mg/mL PMS were prepared in a ratio of 20:1 (MTS:PMS). After 72 hrs incubation, 10 μL of MTS:PMS mixture was added into each well of microtiter plate. The plate was then incubated at 27° C. for 4 hrs for color development. After 4 hrs incubation, the OD values were determined at 490 nm using automatic microtiter plate reader (Bio-Rad).

Data set [5] has as its system Ld39 promastigotes (SSG-resistant). Put plainly: In vitro anti-promastigote activity, Ld39. The format is cell-based, Leishmania donovani. The note with it: Leishmania donovani, 72 h, read-out: Anti-promastigotes activity (IC50, μM) Ld39. On the procedure: as §2, §3
A further data set concerns Lm50122 promastigotes. Kind of data set: In vitro anti-promastigote activity, Lm50122. It is filed as cell-based, Leishmania major. The conditions noted are these: Leishmania major, 72 h, read-out: Anti-promastigotes activity (IC50, μM) Lm50122. How it is done: as §2, §3
The subject of the next data set is Raw264.7 cells. Kind of data set: Cytotoxicity, mouse macrophage Raw264.7. It is filed as cell-based. How it is done:
(§4) (a) Mouse Macrophage Raw 264.7 and Primary Mouse PEM Cells. The cytotoxicity assay of reference antileishmanial compounds and the compounds of this invention was performed against mouse macrophage cell line, Raw 264.7 and primary mouse PEM cells in order to calculate the therapeutic index (IC50 value for cytotoxicity of the compounds divided by IC50 value for antileishmanial activity of the compounds). The cells were grown in supplemented DMEM media in an atmosphere of 95% air with 5% CO2 at 37° C. In brief, Raw264.7 cells and PEM cells were seeded into 96-well flat bottom microtiter plate at 1×10^4cells and 2×10^4 cells per well in a final volume of 100 μL media, respectively. A graded dose of flavonoid dimers or antileishmanials was added into wells. The plate was incubated at 37° C. for 72 hrs at the atmosphere 5% CO2 in the air. The % of survivors was determined.

In another data set the test system is Leishmania promastigotes. Kind of data set: Anti-promastigote activity over the Leishmania strains. It is filed as cell-based, Leishmania donovani, Leishmania major. The conditions noted are these: for IC50: different Leishmania strains, read-out: Anti-promastigote IC50, range over strains. How it is done: as §2, §3
The next data set addresses Pgp (LCC6MDR cells) (Homo sapiens, UniProt P08183). Kind of data set: Cell proliferation assay: Pgp-modulating activity, reversal of anticancer drug resistance in LCC6MDR cells. The note with it: for RF (Relative Fold), cpd at 0.5 μM: RF = (IC50 without modulator)/(IC50 with 0.5 μM modulator), paclitaxel.
For data set [6], the system named is LdAG83PentR50 promastigotes (pentamidine-resistant). Kind of data set: microbe, parasite or virus in culture. The note with it: Leishmania donovani, 72 h, read-out: Anti-promastigotes activity (IC50, μM) LdAG83PentR50. The format is cell-based, Leishmania donovani. How it is done:
as §2
No pentamidine or sodium stibogluconate was added to the L. donovani wild type (LdAG83) and L. major wild type (Lm50122). The mouse macrophage cell line, Raw264.7, was used for the determination of the relative toxicity of the compounds of the invention. […] They were maintained at 37° C. in a humidified atmosphere with 5% CO2. The cells were split constantly after a confluent monolayer has been formed. To split cells, the plate was washed briefly with PBS, treated with 0.05% trypsin-EDTA and harvested by centrifugation.
as §3

The subject of the next data set is PEM cells. Kind of data set: Cytotoxicity, primary mouse peritoneal elicited macrophage (PEM). It is filed as cell-based. How it is done:
as §4

The next data set concerns Ld39 amastigotes. Kind of data set: In vitro anti-amastigote activity, Ld39 amastigotes in mouse PEM. The note with it: for IC50: Leishmania donovani, in Mus musculus.
Setting [7] is: Mus musculus, Macrophage, Table 7, cytotoxicity.
The mark [8] stands for this setting: cytotoxicity, primary mouse macrophage, 72 hrs.
The mark [9] stands for this setting: 72 h, read-out: Ld39 (IC50, mM).

Where two headings read alike, the source gives them in different places. Some results are limits rather than exact numbers.

Pgp (LCC6MDR cells), sequence (P08183 whole entry): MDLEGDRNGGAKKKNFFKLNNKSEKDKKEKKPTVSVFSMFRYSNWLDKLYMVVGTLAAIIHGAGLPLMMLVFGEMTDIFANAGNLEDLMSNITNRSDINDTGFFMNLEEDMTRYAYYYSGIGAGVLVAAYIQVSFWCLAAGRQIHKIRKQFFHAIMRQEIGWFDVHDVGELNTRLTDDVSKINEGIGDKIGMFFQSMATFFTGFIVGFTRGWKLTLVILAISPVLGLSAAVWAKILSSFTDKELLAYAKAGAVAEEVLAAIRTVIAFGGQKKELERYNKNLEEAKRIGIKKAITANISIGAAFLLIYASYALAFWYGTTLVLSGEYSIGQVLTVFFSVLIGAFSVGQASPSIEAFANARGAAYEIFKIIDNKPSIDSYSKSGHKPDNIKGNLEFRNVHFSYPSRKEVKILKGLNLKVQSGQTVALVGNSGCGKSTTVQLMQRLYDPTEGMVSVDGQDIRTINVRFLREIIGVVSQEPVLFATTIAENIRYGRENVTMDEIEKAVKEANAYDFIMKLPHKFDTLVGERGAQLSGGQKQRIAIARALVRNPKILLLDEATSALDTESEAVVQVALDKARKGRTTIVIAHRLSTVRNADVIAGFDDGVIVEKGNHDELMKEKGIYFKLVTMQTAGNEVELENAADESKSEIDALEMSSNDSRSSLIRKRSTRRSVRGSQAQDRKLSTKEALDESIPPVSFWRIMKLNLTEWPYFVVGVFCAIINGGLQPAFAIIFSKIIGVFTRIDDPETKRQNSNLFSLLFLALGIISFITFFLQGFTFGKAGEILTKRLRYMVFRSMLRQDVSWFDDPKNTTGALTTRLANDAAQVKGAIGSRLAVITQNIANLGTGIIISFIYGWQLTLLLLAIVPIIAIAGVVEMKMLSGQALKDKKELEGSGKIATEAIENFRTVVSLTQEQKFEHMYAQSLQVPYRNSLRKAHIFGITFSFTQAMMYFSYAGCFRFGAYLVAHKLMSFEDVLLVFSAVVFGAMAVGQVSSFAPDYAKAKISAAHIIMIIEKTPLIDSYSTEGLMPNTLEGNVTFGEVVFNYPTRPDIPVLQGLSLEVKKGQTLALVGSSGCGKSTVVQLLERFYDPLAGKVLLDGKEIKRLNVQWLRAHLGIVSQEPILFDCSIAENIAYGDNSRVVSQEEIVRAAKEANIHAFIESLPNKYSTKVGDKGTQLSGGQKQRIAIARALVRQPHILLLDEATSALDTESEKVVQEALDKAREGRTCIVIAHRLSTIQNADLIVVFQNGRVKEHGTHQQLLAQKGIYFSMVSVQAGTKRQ
Description for Ld39 amastigotes: Peritoneal elicited macrophages (PEM) from mouse were obtained as previously described. A round cover slip (12 mm in diameter) was placed into each well of 24-well culture plate. Mouse macrophages were resuspended in supplemented DMEM media containing 10% heat inactivated fetal bovine serum (v/v), 100 U/mL penicillin and 100 μg/mL streptomycin and seeded into each well at a cell density of 1×10^5 cells per 500 μL. Macrophages were allowed to attach overnight and the non-adherent cells were removed by gentle washing twice with unsupplemented DMEM media. […] Non-internalized promastigotes were removed by washing with unsupplemented DMEM media for two times. Infected macrophages were further incubated in 500 μL supplemented DMEM media in the presence or absence of flavonoid dimers or known antileishmanials for 72 hrs at 37° C. After incubation, the cover slips were stained with Giemsa and the amastigotes inside each macrophage (100 macrophages per treatment) were counted under microscope. The percentage of macrophages infected and number of amastigotes per 100 macrophages was enumerated.
The % of infected macrophage and the number of amastigotes per 100 macrophages were counted by staining with Giemsa.
Description for Pgp (LCC6MDR cells): Cell Proliferation Assay. 6,000 cells of LCC6 or LCC6MDR and anticancer drugs (paclitaxel, vinblastine, vincristine, doxorubicin and mitoxantrone) were mixed with or without modulators to a final volume of 200 μL in each well of 96-well plates. […] The plates were then incubated for 5 days at 37° C. […] IC50 values were calculated from the dose-response curves of MTS assays (Prism 4.0).

In general, IC50 refers to the concentration needed to halve the response being measured. Consider `O=c1cc(-c2ccc(OCCOCCN(CCOCCOc3ccc(-c4cc(=O)c5ccccc5o4)cc3)Cc3ccccn3)cc2)oc2ccccc12` [Compound 22, 1,13-Bis[4′-(4H-chromen-4-on-2-yl)phenyl]-N-(2-pyridylmethyl)-1,4,10,13-tetraoxa-7-azamidecane], for which the IC50 at 72 h in data set [1] amounted to 29.7 ± 16.4 µM; in [2], 10 ± 1.2 µM; in data set [3], 10 µM. Further, the IC50 in data set [4] is 2.3 ± 0.8 µM; in data set [5], 2.4 ± 1 µM; with Lm50122 promastigotes it was 1.8 ± 0.6 µM; with Raw264.7 cells (Mus musculus, RAW264.7, 72 h), 53 ± 12.7 µM; in the data set with Leishmania promastigotes, 1.8 to 2.4 µM. Also, in the data set on Leishmania promastigotes, the “Fold lower leishmanicidal activity than compound 21” value is recorded as “about 10 fold”. Also, the “RF (Relative Fold), cpd at 0.5 μM” value at Pgp (LCC6MDR cells) (LCC6MDR) is recorded as “(15.8)”.

`CCCCCCCCCCCCCCCCOP(=O)([O-])OCC[N+](C)(C)C` [Miltefosine, reference compound]: the IC50 in data set [5] (3 days at 27° C., MTS) worked out at 17.3 ± 2.1 µM; in data set [6], 9.3 ± 2.4 µM; in the data set on Lm50122 promastigotes (3 days at 27° C., MTS), 9.8 ± 2.3 µM; in the data set with Raw264.7 cells (Mus musculus, RAW264.7, 72 h) it was 20 µM; in the data set with PEM cells (setting [7]), 75.3 ± 9.4 µM; in the data set with PEM cells (setting [8]) it was 75.3 ± 9.4 µM. In addition, the IC50 with Leishmania promastigotes is 4.3 to 17.3 µM; in the data set on Ld39 amastigotes (setting [9]) it was 0.016 ± 0.0064 mM.

In general, EC50 refers to the concentration at which the effect is half-maximal. With `O=c1cc(-c2ccc(OCCOCCNCCOCCOc3ccc(-c4cc(=O)c5ccccc5o4)cc3)cc2)oc2ccccc12` [Compound 12a, 1,13-Bis[4′-(4H-chromen-4-on-2-yl)phenyl]-1,4,10,13-tetraoxa-7-azamidecane], the IC50 at 72 h in data set [1] stood at 2.4 ± 0.7 µM; in [2], 3.3 ± 1 µM; in data set [3] it was 5.9 ± 0.6 µM. For the same compound, the IC50 in [4] is 3.3 µM; in [5] it was 2.3 µM; in data set [6] it was 1.1 µM; in the data set on Raw264.7 cells (72 hrs, listed as 12) it was 2.1 ± 0.9 µM; in the data set with Raw264.7 cells (Mus musculus, RAW264.7, 72 h), < 4 µM; in the data set on Leishmania promastigotes it was < 4 µM. The EC50 on Pgp (LCC6MDR cells) (EC50 of compounds for reversing anticancer drug resistance (nM), Paclitaxel, LCC6MDR) came to 305 ± 35 nM. In addition, on Pgp (LCC6MDR cells) (IC50 of compounds for L929/EC50 of compounds for lowering paclitaxel drug resistance), the Therapeutic index turned out to be 19.3. In addition, at Pgp (LCC6MDR cells) (LCC6MDR), the “RF (Relative Fold), cpd at 0.5 μM” value is “(72.9)”.

For the compound `N=C(N)c1ccc(OCCCCCOc2ccc(C(=N)N)cc2)cc1` [Pentamidine, reference compound], the IC50 came to 16.2 µM in data set [4] (3 days at 27° C., MTS); 5.3 ± 0.8 µM in [5] (3 days at 27° C., MTS); 74.7 µM in data set [6]; 7.7 ± 1 µM in the data set with Lm50122 promastigotes (3 days at 27° C., MTS); 30 µM in the data set on Raw264.7 cells (Mus musculus, RAW264.7, 72 h); 30.4 ± 10.5 µM in the data set with PEM cells (setting [7]). For the same compound, the results for the IC50 in the data set on PEM cells (setting [8]), with Leishmania promastigotes and in the data set with Ld39 amastigotes (setting [9]) were 30.4 µM, 5.3 to 74.7 µM and > 0.03 mM, respectively.

As to `O=c1cc(-c2ccc(OCCOCCN(CCOCCOc3ccc(-c4cc(=O)c5ccccc5o4)cc3)Cc3ccncc3)cc2)oc2ccccc12` [Compound 21, 1,13-Bis[4′-(4H-chromen-4-on-2-yl)phenyl]-N-(4-pyridylmethyl)-1,4,10,13-tetraoxa-7-azamidecane], the IC50 at 72 h in data set [1] was > 100 µM; in [2], > 100 µM; in data set [3], 26.4 ± 2.7 µM. Besides, the IC50 in data set [4] was 0.18 ± 0.02 µM; in data set [5] it was 0.19 ± 0.03 µM; in [6] it was 0.13 ± 0.04 µM; in the data set with Lm50122 promastigotes, 0.35 ± 0.07 µM; in the data set on Raw264.7 cells (Mus musculus, RAW264.7, 72 h), > 100 µM; in the data set with PEM cells (setting [7]), > 88 µM. For the same compound, the IC50 in the data set on PEM cells (setting [8]) is > 88 µM; in the data set on Leishmania promastigotes, 0.13 to 0.35 µM; in the data set on Ld39 amastigotes (setting [9]), 0.00063 ± 0.00012 mM; in the data set with Ld39 amastigotes (read-out: IC50 against Ld39 amastigotes), 0.00063 mM. For the same compound, the “Fold lower anti L. donovani promastigote activity than amphotericin B” value in the data set on Leishmania promastigotes (L. donovani) is recorded as 2 fold. Also, the “% of macrophage infected” value in the data set on Ld39 amastigotes (5 μM, solvent control 100%) is 20%. The “Number of amastigotes per 100 macrophages” value in the data set with Ld39 amastigotes (5 μM, solvent control 887) stood at 48. The “RF (Relative Fold), cpd at 0.5 μM” value on Pgp (LCC6MDR cells) (LCC6MDR) was “(6.9)”.

Regarding `NC[C@@H]1O[C@H](O[C@H]2[C@@H](O)[C@H](O[C@@H]3[C@@H](O)[C@H](N)C[C@H](N)[C@H]3O[C@H]3O[C@H](CO)[C@@H](O)[C@H](O)[C@H]3N)O[C@@H]2CO)[C@H](N)[C@@H](O)[C@@H]1O` [Paromomycin, paromomycin, reference compound], the IC50 in data set [4] (3 days at 27° C., MTS) is 62.6 ± 9.5 µM; in data set [5] (3 days at 27° C., MTS), 24.5 ± 2.4 µM; in data set [6], 85.5 ± 13.5 µM; with Lm50122 promastigotes (3 days at 27° C., MTS) it was 94.5 ± 5.5 µM; with Raw264.7 cells (Mus musculus, RAW264.7, 72 h), > 100 µM; with PEM cells (setting [7]) it was > 100 µM. Besides, the IC50 in the data set with PEM cells (setting [8]) was > 100 µM; in the data set with Leishmania promastigotes, 24.5 to 94.5 µM; in the data set on Ld39 amastigotes (setting [9]), 0.041 mM.

Source of the values: patent US8980848B2, “Flavonoid dimers and their use” (The Hong Kong Polytechnic University, priority 2010, dated 2015).
